Test results as given in patent publication EP3120851A1, “4-AMINO-6-(2,6-DICHLOROPHENYL)-8-METHYL-2-(PHENYLAMINO)-PYRIDO[2,3-D]PYRIMIDIN-7(8H)-ONE FOR TREATMENT OF SOLID CANCERS” (Pangaea Biotech S.L., priority 2015, dated 2017).

Columns and labels:
Test in all cases: MTT proliferation assay, single agent
Assay type in all cases: cell-based
Calu6 = details: Homo sapiens, Calu-6, Lung ADC, KRAS, 72 h, mean of several independent experiments
Method: (§1) The compound of formula (1) was tested using a Thiazolyl Blue Tetrazolium Bromide (MTT) proliferation assay in a panel of tumor cell lines of different origins.
(§2) All culture materials were obtained from Biological Industries (Kibbutz Beit Haemek, Israel) or Invitrogen (Paisley, Scotland, United Kingdom). The non-tumor cell lines HF and HACAT were provided by Vall d'Hebrón Hospital and GmbH, respectively. The PC9 naïve cell line was provided by Mayumi Ono and, the H3122, HCC78 and 11-18 by Daniel Costa. The PC9-GR1, PC9-GR2, PC9-GR3, PC9-GR4, PC9-GR5 and PC9-ER cell lines were derived in house by exposing the parental PC9 cell line to increasing concentrations of erlotinib (ER) or gefitinib (GR). The rest of the cell lines in which compound (1) was tested were purchased from ATCC (H23, H1975, H2228, A549, H460, Calu-6, H1650, SK-MES-1, EBC1, SNU1, AGS, N87, PC3, BxPC3, DLD1, HT29, SW48, SCC9,FaDu, AU565, Gingival, Prostate, SU-DHL-1 and A431). All cell lines were maintained in RPMI medium supplemented with 10% FBS, 50 µg/mL penicillin-streptomycin and 2 mM L-Glutamine. All cells were grown in a humidified atmosphere with 5% CO2 at 37°C.
(§3) Cell viability in response to single agent treatment was assessed by the Thiazolyl Blue Tetrazolium Bromide (MTT) (Sigma, St Louis, MO) assay. Cells from each cell line were seeded at 2000 to 10000 per well in 96-well plates. […] After treatment, cells were incubated with medium containing MTT (0.75 mg/mL in medium) for 1-2 h at 37°C. Culture medium with MTT was removed and formazan crystals reabsorbed in 100 µL DMSO (Sigma, St. Louis, MO). Cell viability was determined by measuring the absorbance at 492 nm, using a microplate reader (BioWhittaker, Walkersville, MD).
(§4) The IC50s shown are the mean of several independent experiments. Standard errors are also listed Table 2. SCC means squamous cell carcinoma, ADC means adenocarcinoma, GBM means glioblastoma.

L239R = details: SCC Lung, DDR2 mutated, 72 h, mean of several independent experiments
Method: as §1, §2, §3, §4

H2228 = details: Homo sapiens, NCI-H2228, Lung ADC, ALK-EML4 (v3), 72 h, mean of several independent experiments
Method: as §1, §2, §3, §4

H1650 = details: Homo sapiens, NCI-H1650, Lung ADC, EGFR ex19, 72 h, mean of several independent experiments
Method: as §1, §2, §3, §4

PC9-GR3 = details: Lung ADC, EGFR ex19, 72 h, mean of several independent experiments
Method: as §1, §2, §3, §4

H23 = details: Homo sapiens, NCI-H23, Lung ADC, KRAS, 72 h, mean of several independent experiments
Method: as §1, §2, §3, §4

435S = details: Melanoma (melanocyte), BRAF V600E, 72 h, mean of several independent experiments
Method: as §1, §2, §3, §4

EBC-1 = details: Homo sapiens, SCC Lung, c-Met ampl, 72 h, mean of several independent experiments
Method: as §1, §2, §3, §4

PC9-GR1 = details: Lung ADC, EGFR ex19, 72 h, mean of several independent experiments
Method: as §1, §2, §3, §4

I638F = details: SCC Lung, DDR2 mutated, 72 h, mean of several independent experiments
Method: as §1, §2, §3, §4

H460 = details: Homo sapiens, NCI-H460, Lung ADC, KRAS, 72 h, mean of several independent experiments
Method: as §1, §2, §3, §4

H1703 = details: Homo sapiens, NCI-H1703, SCC Lung, DDR2 wt, 72 h, mean of several independent experiments
Method: as §1, §2, §3, §4

HCC366 = details: SCC Lung, DDR2 mutated, 72 h, mean of several independent experiments
Method: as §1, §2, §3, §4

H1568 = details: NCI-H1568, Lung ADC, CD74-NRG1, 72 h, mean of several independent experiments
Method: as §1, §2, §3, §4

FaDu = details: Homo sapiens, SCC Head&Neck, DDR2 wt, 72 h, mean of several independent experiments
Method: as §1, §2, §3, §4

BxPC3 = details: Homo sapiens, BXPC-3, Pancreas, mut TP53, 72 h, mean of several independent experiments
Method: as §1, §2, §3, §4

H322 = details: NCI-H322, Lung BAC, CD74-NRG1, 72 h, mean of several independent experiments
Method: as §1, §2, §3, §4

H11-18 = details: Lung ADC, EGFR ex21, 72 h, mean of several independent experiments
Method: as §1, §2, §3, §4

H1975 = details: Homo sapiens, NCI-H1975, Lung ADC, EGFR ex21, 72 h, mean of several independent experiments
Method: as §1, §2, §3, §4

I638F+T654M = details: SCC Lung, DDR2 mutated, 72 h, mean of several independent experiments
Method: as §1, §2, §3, §4

H2286 = details: Homo sapiens, NCI-H2286, SCC Lung, DDR2 mutated, 72 h, mean of several independent experiments
Method: as §1, §2, §3, §4

PC9-GR5 = details: Lung ADC, EGFR ex19, 72 h, mean of several independent experiments
Method: as §1, §2, §3, §4

PC3 = details: Homo sapiens, PC-3, Prostate ADC, DDR2 wt, 72 h, no standard error printed
Method: as §1, §2, §3, §4

U118MG = details: Homo sapiens, U-118-MG, GBM, ROS1-FIG, 72 h, mean of several independent experiments
Method: as §1, §2, §3, §4

PC9-ER = details: Homo sapiens, PC-9/ER, Lung ADC, EGFR ex19, 72 h, mean of several independent experiments
Method: as §1, §2, §3, §4

How did the IC50 (Calu6) turn out when `Cn1c(=O)c(-c2c(Cl)cccc2Cl)cc2c(N)nc(Nc3ccccc3)nc21` [Compound (1), 4-amino-6-(2,6-dichlorophenyl)-8-methyl-2-(phenylamino)-pyrido[2,3-d]pyrimidin-7(8H)-one] was run?
The IC50 was 0.72 µM.

And the IC50 (L239R)?
The IC50 was 0.75 µM.

And the IC50 (H2228)?
Its IC50 is 1.36 µM.

What about the IC50 (H1650) of the same compound?
The IC50 was 2.68 µM.

What about the IC50 (PC9-GR3) of the same compound?
The IC50 was 0.88 µM.

And the IC50 (H23)?
The IC50 was 1.57 µM.

What about the IC50 (435S) of the same compound?
Its IC50 is 1 µM.

What about the IC50 (EBC-1) of the same compound?
Its IC50 is 5.1 µM.

What about the IC50 (PC9-GR1) of the same compound?
Its IC50 is 1.45 µM.

What about the IC50 (I638F) of the same compound?
Its IC50 is 0.1 µM.

What about the IC50 (H460) of the same compound?
Its IC50 is 1 µM.

What about the IC50 (H1703) of the same compound?
The IC50 was 0.55 µM.

And the IC50 (HCC366)?
Its IC50 is 0.83 µM.

And the IC50 (H1568)?
The IC50 was 2.43 µM.

And the IC50 (FaDu)?
The IC50 was 4.85 µM.

What about the IC50 (BxPC3) of the same compound?
Its IC50 is 1.8 µM.

And the IC50 (H322)?
Its IC50 is 4.35 µM.

What about the IC50 (H11-18) of the same compound?
Its IC50 is 4.9 µM.

What about the IC50 (H1975) of the same compound?
The IC50 was 2.07 µM.

And the IC50 (I638F+T654M)?
The IC50 was 0.77 µM.

And the IC50 (H2286)?
The IC50 was 0.05 µM.

What about the IC50 (PC9-GR5) of the same compound?
Its IC50 is 1.61 µM.

And the IC50 (PC3)?
Its IC50 is 3.4 µM.

What about the IC50 (U118MG) of the same compound?
The IC50 was 2.6 µM.

And the IC50 (PC9-ER)?
The IC50 was 1.18 µM.
